Here are results for 18 compounds from ChEMBL document CHEMBL1128962, “Serotoninergic 5-HT3 and 5-HT4 receptor activities of dihydrobenzofuran carboxylic acid derivatives” (Bioorg Med Chem Lett, 1996).

For orientation: EC50 means the concentration at which the effect is half-maximal. The low end stands for higher potency in that assay, the high end for lower potency in that assay. The term Ki denotes a measure of affinity in units of concentration, obtained from inhibition or displacement. A higher Ki goes with lower affinity.

Assay [1] addresses Serotonin 3 (5-HT3) receptor (Homo sapiens) (UniProt P46098+A5X5Y0+O95264+Q70Z44+Q8WXA8). Kind of assay: In vitro 5-hydroxytryptamine 3 receptor activity in guinea pig ileum. It counts as tissue-based. The note with it: Cavia porcellus, target entry is the homologue from another species.
Assay [2] addresses T1, 5-hydroxytryptamine receptor 4 (Rattus norvegicus, UniProt Q62758). Kind of assay: In vitro relaxation of carbachol pre-contracted rat oesophageal TMM. It counts as functional.
Assay [3] deals with 5-hydroxytryptamine receptor 4 (Rattus norvegicus) (UniProt Q62758). Description: In vitro 5-hydroxytryptamine 4 receptor activity by using carbachol-precontracted esophageal tunica muscularis mucosae.
Sequence of 5-hydroxytryptamine receptor 4 (Rattus norvegicus) (Q62758 whole entry): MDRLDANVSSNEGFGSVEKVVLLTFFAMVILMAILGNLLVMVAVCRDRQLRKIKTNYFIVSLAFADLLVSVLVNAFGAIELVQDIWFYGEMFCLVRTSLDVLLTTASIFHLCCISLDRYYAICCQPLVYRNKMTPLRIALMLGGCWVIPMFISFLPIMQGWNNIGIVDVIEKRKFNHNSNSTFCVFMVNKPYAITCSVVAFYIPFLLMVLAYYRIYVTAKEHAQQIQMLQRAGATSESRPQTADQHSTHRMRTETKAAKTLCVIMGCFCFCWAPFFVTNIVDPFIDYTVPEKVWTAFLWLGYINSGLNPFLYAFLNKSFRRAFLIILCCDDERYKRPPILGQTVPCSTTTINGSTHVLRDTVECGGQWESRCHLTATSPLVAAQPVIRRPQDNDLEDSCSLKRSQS
For assay [4], the target named is T1, 5-hydroxytryptamine receptor 4. Description: Binding affinity at 5-hydroxytryptamine 4 receptor in rat striatum by [3H]GR-113808 displacement. It counts as tissue-based.
Assay [5] deals with T2, Serotonin 3 (5-HT3) receptor (Rattus norvegicus, UniProt P35563+Q9JJ16).
T2 sequence (P35563 whole entry): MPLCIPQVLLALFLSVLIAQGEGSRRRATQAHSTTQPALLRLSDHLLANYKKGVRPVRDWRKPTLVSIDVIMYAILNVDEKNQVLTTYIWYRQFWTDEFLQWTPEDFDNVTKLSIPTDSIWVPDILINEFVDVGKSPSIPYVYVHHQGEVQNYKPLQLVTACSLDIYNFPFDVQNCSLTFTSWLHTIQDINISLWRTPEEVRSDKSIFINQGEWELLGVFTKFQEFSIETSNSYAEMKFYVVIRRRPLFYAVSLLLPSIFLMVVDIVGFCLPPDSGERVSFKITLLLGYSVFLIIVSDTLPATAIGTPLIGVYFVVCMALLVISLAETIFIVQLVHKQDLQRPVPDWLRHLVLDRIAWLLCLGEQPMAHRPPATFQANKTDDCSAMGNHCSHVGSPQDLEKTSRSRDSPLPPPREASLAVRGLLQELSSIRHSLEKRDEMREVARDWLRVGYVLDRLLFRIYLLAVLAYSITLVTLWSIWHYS
T2 sequence (Q9JJ16 whole entry): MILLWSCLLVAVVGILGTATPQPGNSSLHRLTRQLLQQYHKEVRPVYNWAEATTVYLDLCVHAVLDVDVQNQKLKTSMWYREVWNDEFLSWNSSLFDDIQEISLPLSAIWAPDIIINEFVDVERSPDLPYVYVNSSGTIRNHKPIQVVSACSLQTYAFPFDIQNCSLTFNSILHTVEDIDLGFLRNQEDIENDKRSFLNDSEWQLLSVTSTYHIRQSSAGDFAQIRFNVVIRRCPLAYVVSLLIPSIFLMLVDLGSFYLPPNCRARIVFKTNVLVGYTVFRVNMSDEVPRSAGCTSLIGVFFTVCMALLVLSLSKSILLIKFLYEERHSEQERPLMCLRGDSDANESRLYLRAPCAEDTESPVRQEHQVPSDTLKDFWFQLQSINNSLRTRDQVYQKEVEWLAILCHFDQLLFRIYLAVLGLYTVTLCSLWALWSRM
Kind of assay: Binding affinity at 5-hydroxytryptamine 3 receptor in rat entorhinal cortex by [3H]BRL-43694 displacement. It counts as tissue-based.

The target in assay [6] is 5-hydroxytryptamine receptor 4 (Rattus norvegicus) (UniProt Q62758). Description: In vitro 5-hydroxytryptamine 4 receptor activity by using carbachol-precontracted esophageal tunica muscularis mucosae; No activity up to 104M concentration.

T1 sequence (Q62758 whole entry): as the sequence (Q62758 whole entry) above

`O=C(N[C@@H]1CN2CCC1CC2)c1cc(Cl)cc2c1OCC2`: the Kb in assay [1] is 21.8 nM; in assay [3], above 100 nM. In assay [2], this compound displayed an EC50 above 10000 nM. For the same compound, the inhibition constant Ki amounted to 170 nM in assay [4] and 1 nM in assay [5].

As to `O=C(N[C@H]1CN2CCC1CC2)c1cc(Cl)cc2c1OCC2`, the results for the Kb in assay [1] and in assay [3] were 38 nM and above 1000 nM, respectively. In assay [2], this compound gave an EC50 above 1000 nM. Also, the inhibition constant Ki in assay [4] came out at 280 nM; in assay [5] it was 1 nM.

In assay [2], `Nc1c(Cl)cc(C(=O)NCCN2CCCCC2)c2c1CCO2` yielded an EC50 of 35.4 nM. The inhibition constant Ki stood at 41 nM in assay [4] and 380 nM in assay [5].

With `CCN(CC)CCNC(=O)c1cc(Cl)c(N)cc1OC` [METOCLOPRAMIDE], in assay [5], the inhibition constant Ki was 490 nM.

On to `Nc1ccc(C(=O)N[C@@H]2CN3CCC2CC3)c2c1CCO2`, for which the Kb in assay [1] was 44.6 nM; in assay [3], above 100 nM. This compound showed an EC50 in assay [2] above 10000 nM. The values for the inhibitory constant (Ki) in assay [4] and in assay [5] were above 1000 nM and 1 nM, respectively.

With `Nc1ccc(C(=O)N[C@H]2CN3CCC2CC3)c2c1CCO2`, the EC50 in assay [2] was above 1000 nM. In assay [3], this compound showed a Kb above 1000 nM. Besides, the Ki in assay [4] is above 1000 nM; in assay [5] it was 20 nM.

As to `O=C(N[C@H]1CN2CCC1CC2)c1cccc2c1OCC2`, the EC50 in assay [2] was above 1000 nM. In assay [3], this compound displayed a Kb above 1000 nM. Also, the Ki in assay [4] was above 10000 nM; in assay [5] it was 14 nM.

`Nc1c(Cl)cc(C(=O)OCCCN2CCCCC2)c2c1CCO2` yielded a concentration for a half-maximal effect (EC50) in assay [2] of 7.43 nM. Moreover, the Ki in assay [4] came to 4.5 nM; in assay [5], 1180 nM.

Consider `O=C(N[C@@H]1CN2CCC1CC2)c1cccc2c1OCC2`, for which the Kb in assay [1] was 40.7 nM; in assay [3] it was above 1000 nM. In addition, the EC50 in assay [2] was above 10000 nM. Also, the inhibitory constant (Ki) in assay [4] is above 1000 nM; in assay [5], 1.4 nM.

`Nc1c(Cl)cc(C(=O)NCCCN2CCCCC2)c2c1CCO2` yielded a concentration for a half-maximal effect (EC50) in assay [2] of 19.3 nM. Besides, the inhibition constant Ki in assay [4] was 9.6 nM; in assay [5] it was above 10000 nM.

In turn, `CCCCN1CCC(CNC(=O)c2cc(Cl)c(N)c3c2OCC3)CC1` displayed an EC50 in assay [2] of 4.49 nM. Also, the Ki in assay [4] came out at 1.9 nM; in assay [5], 57 nM.

The compound `COc1cc(N)c(Cl)cc1C(=O)N[C@@H]1CN2CCC1CC2` had a concentration for a half-maximal effect (EC50) in assay [2] of 55.9 nM. Moreover, the Ki in assay [4] was 131 nM; in assay [5] it was 0.11 nM.

Compound `CCCC[N+]12CCC(CC1)[C@@H](NC(=O)c1cc(Cl)c(N)c3c1OCC3)C2` came in with an EC50 in assay [2] of 1360 nM. Further, the Ki amounted to 420 nM in assay [4] and 10 nM in assay [5].

Take `Nc1c(Cl)cc(C(=O)N[C@H]2CN3CCC2CC3)c2c1CCO2`: in assay [1], the Kb came to 33.9 nM. This compound also came in with a concentration for a half-maximal effect (EC50) in assay [2] of 195 nM. Besides, the inhibition constant Ki is 115 nM in assay [4] and 1 nM in assay [5].

As for `Nc1c(Cl)cc(C(=O)N[C@@H]2CN3CCC2CC3)c2c1CCO2`, the Kb was determined as 3.8 nM in assay [1] and 18.6 nM in assay [6]. In addition, in assay [2], the EC50 was determined as 18.6 nM. The inhibition constant Ki in assay [4] stood at 17 nM; in assay [5], 0.1 nM.

With `CCCC[N+]12CCC(CC1)[C@H](NC(=O)c1cc(Cl)c(N)c3c1OCC3)C2`, the midpoint of the response in assay [2], the EC50, lay at 8.5 nM. For the same compound, the results for the inhibitory constant (Ki) in assay [4] and in assay [5] were 1.9 nM and 73 nM, respectively.

`CCCCN1CCC(COC(=O)c2cc(Cl)c(N)c3c2OCC3)CC1` registered an EC50 in assay [2] of 1.85 nM. The Ki in assay [4] was determined as 0.13 nM; in assay [5], 250 nM.

The compound `Nc1c(Cl)cc(C(=O)OCCN2CCCCC2)c2c1CCO2` gave a concentration for a half-maximal effect (EC50) in assay [2] of 2.02 nM. Further, the Ki in assay [4] was 0.94 nM; in assay [5], 110 nM.
